The test system of assay [1] is MG RNA aptamer (malachite green RNA aptamer) (RNA, aptamer) GGAUCCCGACUGGCGAGAGCCAGGUAACGAAUGGAUCC
Description: fluorescence titration, Hill fit n = 1. As to conditions: 100 mM KCl, 1 mM Mg-citrate; 10 mM HEPES, 0.2 M bicine, pH 8.5, room temperature; no vesicles.

Assay [2] relates to MG aptamer construct for SHAPE (MG aptamer SHAPE construct) (RNA, aptamer) GGGCCUUCGGGCCAAGGAUCCCGACUGGCGAGAGCCAGGUAACGAAUGGAUCCUCGAUCCGGUUCGCCGGAUCCAAAUCGGGCUUCGGUCCGGUUC
The experiment in a line: SHAPE (NMIA), A30/A31 band ratio, Boltzmann fit. The following applies: 100 mM KCl, 1 mM Mg-citrate; bicine pH 8.5; RNA outside empty myristoleic acid vesicles; MG incubation room temperature, NMIA 10 °C; apparent.

A word on the KD: it is the constant that tells how readily two partners part at equilibrium. A low value points to a tighter complex. For the molecule `CN(C)c1ccc(C(=C2C=CC(=[N+](C)C)C=C2)c2ccccc2)cc1`, the KD in assay [1] was 2.5 ± 0.4 µM. The midpoint in assay [2] came out at 6.1 ± 0.7 µM.
